Assay results as given in patent US4248863A, “Antibiotics saframycins A, B, C, D and E and process for producing the same” (priority 1977, dated 1981).
In brackets after ≈: the same amount, converted by molar mass.

Legend:
[1] = test system: Bacillus subtilis; test: Antimicrobial spectrum, MIC (Table 4); type: cell-based; conditions: 1% glucose nutrient agar, 37° C., 24 or 48 hours
[2] = test system: Bacillus cereus; test: Antimicrobial spectrum, MIC (Table 4); type: cell-based; conditions: 1% glucose nutrient agar, 37° C., 24 or 48 hours
[3] = test system: Shigella dysenteriae Shiga; test: microbe, parasite or virus in culture; type: cell-based; conditions: 1% glucose nutrient agar, 37° C., 24 or 48 hours
[4] = test system: Mycobacterium phlei; test: Antimicrobial spectrum, MIC (Table 4); type: cell-based; conditions: 3% glycerol nutrient agar for acid-fast bacteria, 37° C., 24 or 48 hours
[5] = test system: Mycobacterium sp. 607; test: Antimicrobial spectrum, MIC (Table 4); type: cell-based; conditions: 3% glycerol nutrient agar for acid-fast bacteria, 37° C., 24 or 48 hours
[6] = test system: Corynebacterium xerosis; test: Antimicrobial spectrum, MIC (Table 4); type: cell-based; conditions: 1% glucose nutrient agar, 37° C., 24 or 48 hours
[7] = test system: Penicillium glaucum; test: Antimicrobial spectrum, MIC (Table 4); conditions: Sabouraud.dextrose.agar, 27° C., 48 hours
[8] = test system: Mucor mucedo; test: Antimicrobial spectrum, MIC (Table 4); conditions: Sabouraud.dextrose.agar, 27° C., 48 hours
[9] = test system: Candida albicans; test: Antimicrobial spectrum, MIC (Table 4); conditions: Sabouraud.dextrose.agar, 27° C., 48 hours
[10] = test system: Rhodotorula glutinis; test: Antimicrobial spectrum, MIC (Table 4); conditions: Sabouraud.dextrose.agar, 27° C., 48 hours
[11] = test system: Aspergillus oryzae; test: Antimicrobial spectrum, MIC (Table 4); conditions: Sabouraud.dextrose.agar, 27° C., 48 hours
[12] = test system: Salmonella typhimurium; test: Antimicrobial spectrum, MIC (Table 4); type: cell-based; conditions: 1% glucose nutrient agar, 37° C., 24 or 48 hours
[13] = Solubility
[14] = test system: Trichophyton mentagrophytes; test: Antimicrobial spectrum, MIC (Table 4); conditions: Sabouraud.dextrose.agar, 27° C., 72 hours
[15] = test system: Staphylococcus aureus Smith; test: Antimicrobial spectrum, MIC (Table 4); type: cell-based; conditions: 1% glucose nutrient agar, 37° C., 24 or 48 hours
[16] = test system: Staphylococcus aureus 209P; test: Antimicrobial spectrum, MIC (Table 4); type: cell-based; conditions: 1% glucose nutrient agar, 37° C., 24 or 48 hours
[17] = test system: Staphylococcus albus; test: Antimicrobial spectrum, MIC (Table 4); type: cell-based; conditions: 1% glucose nutrient agar, 37° C., 24 or 48 hours
[18] = test system: Micrococcus luteus; test: Antimicrobial spectrum, MIC (Table 4); type: cell-based; conditions: 1% glucose nutrient agar, 37° C., 24 or 48 hours
[19] = test system: Serratia marcescens; test: Antimicrobial spectrum, MIC (Table 4); type: cell-based; conditions: 1% glucose nutrient agar, 37° C., 24 or 48 hours
[20] = test system: Corynebacterium dephtheriae; test: Antimicrobial spectrum, MIC (Table 4); type: cell-based; conditions: 1% glucose nutrient agar, 37° C., 24 or 48 hours
[21] = test system: Nocardia asteroides; test: Antimicrobial spectrum, MIC (Table 4); type: cell-based; conditions: 37° C., 24 or 48 hours
[22] = test system: Pseudomonas aeruginosa; test: Antimicrobial spectrum, MIC (Table 4); type: cell-based; conditions: 1% glucose nutrient agar, 37° C., 24 or 48 hours
[23] = test system: Escherichia coli; test: Antimicrobial spectrum, MIC (Table 4); type: cell-based; conditions: 1% glucose nutrient agar, 37° C., 24 or 48 hours
[24] = test system: Brucella abortus; test: microbe, parasite or virus in culture; type: cell-based; conditions: blood agar, 37° C., 24 or 48 hours
[25] = test system: Staphylococcus citreus; test: Antimicrobial spectrum, MIC (Table 4); type: cell-based; conditions: 1% glucose nutrient agar, 37° C., 24 or 48 hours
[26] = test system: Aspergillus niger; test: Antimicrobial spectrum, MIC (Table 4); conditions: Sabouraud.dextrose.agar, 27° C., 48 hours
[27] = test system: Klebsiella pneumoniae; test: Antimicrobial spectrum, MIC (Table 4); type: cell-based; conditions: 1% glucose nutrient agar, 37° C., 24 or 48 hours
[28] = test system: Saccharomyces cerevisiae; test: Antimicrobial spectrum, MIC (Table 4); conditions: Sabouraud.dextrose.agar, 27° C., 48 hours
[29] = test system: Mycobacterium avium; test: Antimicrobial spectrum, MIC (Table 4); type: cell-based; conditions: 3% glycerol nutrient agar for acid-fast bacteria, 37° C., 24 or 48 hours
[30] = test system: Streptococcus pyogenes 090R; test: Antimicrobial spectrum, MIC (Table 4); type: cell-based; conditions: blood agar, 37° C., 24 or 48 hours
[31] = test system: Streptococcus pyogenes; test: Antimicrobial spectrum, MIC (Table 4); type: cell-based; conditions: blood agar, 37° C., 24 or 48 hours
[32] = test system: Streptococcus faecalis; test: Antimicrobial spectrum, MIC (Table 4); type: cell-based; conditions: 1% glucose nutrient agar, 37° C., 24 or 48 hours
[33] = test system: Staphylococcus salivarius; test: Antimicrobial spectrum, MIC (Table 4); type: cell-based; conditions: 1% glucose nutrient agar, 37° C., 24 or 48 hours

COC1=C(C)C(=O)C2=C(C1=O)[C@H](CNC(=O)C(C)=O)N1C[C@H]3C(=O)c4c(O)c(C)c(OC)c(O)c4[C@@H]([C@@H]1C2)N3C [saframycin D]
MIC [1]: 50.0 µg/mL (≈ 90.3 µM) | MIC [2]: 100.0 µg/mL (≈ 181 µM) | MIC [3]: > 100.0 µg/mL | MIC [4]: 50.0 µg/mL (≈ 90.3 µM) | MIC [5]: 50.0 µg/mL (≈ 90.3 µM) | MIC [6]: 6.25 µg/mL (≈ 11.3 µM) | MIC [7]: > 100.0 µg/mL | MIC [8]: > 100.0 µg/mL | MIC [9]: > 100.0 µg/mL | MIC [10]: > 100.0 µg/mL | MIC [11]: > 100.0 µg/mL | MIC [12]: > 100.0 µg/mL | Solubility ([13]; acetone): Sparingly soluble | Solubility ([13]; chloroform): Easily soluble | Solubility ([13]; esters): Sparingly soluble | Solubility ([13]; ethyl ether): Sparingly soluble | Solubility ([13]; lower alcohols): Easily soluble | Solubility ([13]; n-hexane): Insoluble | Solubility ([13]; pyridine): Easily soluble | Solubility ([13]; water): Insoluble | MIC [14]: > 100.0 µg/mL | MIC [15]: 50.0 µg/mL (≈ 90.3 µM) | MIC [16]: 25.0 µg/mL (≈ 45.2 µM) | MIC [17]: 50.0 µg/mL (≈ 90.3 µM) | MIC [18]: 50.0 µg/mL (≈ 90.3 µM) | MIC [19]: > 100.0 µg/mL | MIC [20]: 0.195 µg/mL (≈ 0.352 µM) | MIC [21]: 50.0 µg/mL (≈ 90.3 µM) | MIC [22]: > 100.0 µg/mL | MIC [23]: > 100.0 µg/mL | MIC [24]: 25.0 µg/mL (≈ 45.2 µM) | MIC [25]: 50.0 µg/mL (≈ 90.3 µM) | MIC [26]: > 100.0 µg/mL | MIC [27]: 100.0 µg/mL (≈ 181 µM) | MIC [28]: > 100.0 µg/mL | MIC [29]: 50.0 µg/mL (≈ 90.3 µM)

COC1=C(C)C(=O)C2=C(C1=O)[C@H](CNC(=O)C(C)=O)N1C[C@@H]3[C@@H](O)c4c(O)c(C)c(OC)c(O)c4[C@H]([C@@H]1C2)N3C [saframycin E]
MIC [1]: 100.0 µg/mL (≈ 180 µM) | MIC [30]: 25.0 µg/mL (≈ 45 µM) | MIC [2]: 25.0 µg/mL (≈ 45 µM) | MIC [31]: > 100.0 µg/mL | MIC [3]: > 100.0 µg/mL | MIC [4]: 25.0 µg/mL (≈ 45 µM) | MIC [5]: 100.0 µg/mL (≈ 180 µM) | MIC [32]: > 100.0 µg/mL | MIC [6]: 25.0 µg/mL (≈ 45 µM) | MIC [7]: > 100.0 µg/mL | MIC [8]: > 100.0 µg/mL | MIC [9]: > 100.0 µg/mL | MIC [10]: > 100.0 µg/mL | MIC [11]: > 100.0 µg/mL | MIC [12]: > 100.0 µg/mL | Solubility ([13]; acetone): Sparingly soluble | Solubility ([13]; chloroform): Sparingly soluble | Solubility ([13]; esters): Sparingly soluble | Solubility ([13]; lower alcohols): Easily soluble | Solubility ([13]; n-hexane): Insoluble | Solubility ([13]; pyridine): Easily soluble | Solubility ([13]; water): Insoluble | MIC [14]: > 100.0 µg/mL | MIC [15]: 50.0 µg/mL (≈ 90 µM) | MIC [16]: 100.0 µg/mL (≈ 180 µM) | MIC [17]: 100.0 µg/mL (≈ 180 µM) | MIC [18]: 12.5 µg/mL (≈ 22.5 µM) | MIC [19]: > 100.0 µg/mL | MIC [20]: 100.0 µg/mL (≈ 180 µM) | MIC [21]: 25.0 µg/mL (≈ 45 µM) | MIC [22]: > 100.0 µg/mL | MIC [23]: > 100.0 µg/mL | MIC [24]: 25.0 µg/mL (≈ 45 µM) | MIC [25]: 100.0 µg/mL (≈ 180 µM) | MIC [26]: > 100.0 µg/mL | MIC [27]: 50.0 µg/mL (≈ 90 µM) | MIC [33]: 100.0 µg/mL (≈ 180 µM) | MIC [28]: > 100.0 µg/mL | MIC [29]: 100.0 µg/mL (≈ 180 µM)
